Data as given in patent US5466436A, “Medicaments for treating inflammatory conditions or for analgesia” (Glaxo Group Limited, priority 1991, dated 1995).
Where a name gives a salt, the structure may show the parent alone.

What was measured:
[1] = system: indomethacin-induced gastric antral ulceration; assay: Inhibition of indomethacin-induced gastric antral ulceration in the rat (modified Satoh et al.); assay type: in vivo; details: for potency compared with other test compounds (in words): ranitidine bismuth citrate versus ranitidine hydrochloride and De-Nol, po; for potency compared with other test compounds (in words) / inhibition of indomethacin-induced lesions (in words): rats; for inhibition of indomethacin-induced lesions (in words): ranitidine bismuth citrate 1 to 100 mg/kg po
Protocol: The ability of ranitidine bismuth citrate to prevent indomethacin-induced gastric antral ulceration was compared with that of ranitidine hydrochloride and De-Nol™. Female rats, which had been fasted for 24 hours and then re-fed, received ranitidine bismuth citrate (1 to 100mg/kg), ranitidine hydrochloride (10 to 100mg/kg) or De-Nol™ (3 to 100mg/kg) by oral gavage. Ranitidine bismuth citrate was administered as a suspension and the other test compounds as solutions. Thirty minutes after dosing with the test compound, animals received indomethacin (60mg/kg sc) as an ulcerogenic stimulus and after a further 6 hours the animals were killed and the antral region assessed macroscopically for damage.

[2] = system: aspirin-induced injury to the gastric mucosa; details: human clinical study, N. Hudson et al., Gut 1992, 33 supplement, s47; cited from earlier work
[3] = system: mucosal lesions of the gastrointestinal tract caused by non-steroidal anti-inflammatory drugs; assay: Tests in animals and humans: mucosal lesions of the gastrointestinal tract caused by non-steroidal anti-inflammatory drugs; assay type: in vivo
[4] = listed as Ranitidine bismuth citrate
[5] = listed as ranitidine bismuth citrate

Compound	ED50 ([1]; Rattus norvegicus, female rats, oral gavage 30 min before indomethacin 60 mg/kg sc, antral damage assessed after a further 6 hours) [mg/kg]	potency compared with other test compounds (in words) [1]	protection from aspirin-induced injury to the gastric mucosa (in words) [2]	ED50 for inhibition of indomethacin-induced antral ulceration ([1]; female rats, oral gavage 30 min before indomethacin 60 mg/kg sc, antral damage assessed after a further 6 hours) [mg/kg p.o.]	inhibition of indomethacin-induced lesions (in words) [1, 4]	inhibition of indomethacin-induced lesions (in words) [1, 5]	potency compared with other test compounds (in words) [1, 4]	potency compared with other test compounds (in words) [1, 5]	reduction of NSAID-caused mucosal lesions of the gastrointestinal tract (in words) [3]
CNC(=C[N+](=O)[O-])NCCSCc1ccc(CN(C)C)o1 [Ranitidine Hydrochloride, ranitidine hydrochloride, reference compound]	23.4	markedly less potent	–	–	–	–	–	–	–
N-[2-[[[5-[(dimethylamino)methyl]-2-furanyl]methyl]thio]ethyl]-N'-methyl-2-nitro-1,1-ethenediamine 2-hydroxy-1,2,3-propanetricarboxylate bismuth (3^+) complex [Ranitidine Bismuth Citrate]	–	–	substantial protection from aspirin-induced injury to the gastric mucosa	4.5	dose-related inhibition of indomethacin-induced lesions	prevent indomethacin induced gastric antral ulceration	relatively potent	markedly more potent than both ranitidine hydrochloride and tripotassium dicitrato bismuthate as DeNol™	significantly reduced
